Values after ≈ are worked out from the molar mass of the structure shown. Where a name gives a salt, the structure may show the parent alone.
Columns and labels:
[1] = Selectivity index, ratio of IC50 for human 293T cells to MIC for Mycobacterium tuberculosis H37Rv; assay type: toxicity, cell-based; conditions: read-out: Selectivity Index
[2] = tested on: HEK-293T; experiment: Cytotoxicity against human 293T cells; assay type: cell-based
[3] = tested on: Mycobacterium tuberculosis; experiment: Antimycobacterial activity against Mycobacterium tuberculosis H37Rv after 45 days; assay type: functional

Structure (SMILES)	selectivity ratio [1]	IC50 [2]	MIC [3]
CC1(C)[C@@H]2CC[C@@]1(C)[C@H](NC(=O)[C@@H](O)c1ccccc1)C2	619	105 µM	0.17 µM (≈ 0.0489 µg/mL)
CC(C)[C@H](O)C(=O)N[C@@H]1C[C@H]2CC[C@]1(C)C2(C)C	> 25.3	> 200 µM	7.89 µM (≈ 2 µg/mL)
CSCC[C@H](O)C(=O)N[C@@H]1C[C@H]2CC[C@]1(C)C2(C)C	1010	172 µM	0.17 µM (≈ 0.0485 µg/mL)
CC(C)C[C@H](O)C(=O)N[C@@H]1C[C@H]2CC[C@]1(C)C2(C)C	14.9	112 µM	7.48 µM (≈ 2 µg/mL)
CC[C@H](C)[C@H](O)C(=O)N[C@@H]1C[C@H]2CC[C@]1(C)C2(C)C	13.6	107 µM	7.48 µM (≈ 2 µg/mL)
CC1(C)[C@@H]2CC[C@@]1(C)[C@H](NC(=O)[C@@H](O)Cc1ccccc1)C2	330	52.8 µM	0.16 µM (≈ 0.0482 µg/mL)
CC[C@@H](CO)NCCN[C@@H](CC)CO [ETHAMBUTOL HYDROCHLORIDE]	–	–	7.22 µM
CO[C@H]1/C=C/O[C@@]2(C)Oc3c(C)c(O)c4c(O)c(c(/C=N/N5CCN(C)CC5)c(O)c4c3C2=O)NC(=O)/C(C)=C\C=C\[C@H](C)[C@H](O)[C@@H](C)[C@@H](O)[C@@H](C)[C@H](OC(C)=O)[C@@H]1C [RIFAMPIN]	–	–	0.06 µM (≈ 0.0494 µg/mL)

— ChEMBL document CHEMBL3098088, “Synthesis and antimycobacterial activity of novel camphane-based agents” (Bioorg Med Chem Lett, 2014)
